Assay results reported in patent US10562857B2 (AFASCI, Inc., priority 2015, dated 2020).
Like-named read-outs stand apart in the source and are kept apart here.

Target: T1, Cav3.2 channel (Homo sapiens, UniProt O95180)
T1 construct: expressed in transfected cells; host or cells: HEK-293, tetracycline inducible expression system (Invitrogen)
Assay: Whole-cell patch clamp of T-type Cav3.2 channel expressed in HEK293 cells
Type: cell-based
Method: Cav3.1, Cav3.2 or Cav3.3 channels were expressed in human embryonic kidney (HEK)-293 cells using a tetracycline inducible expression system (Invitrogen). Cells were maintained in 25 cm^2 tissue culture flasks at 37° C., 5% CO2, and 100% relative humidity in D-MEM/F12 (Dulbecco's Modified Eagle Medium/Nutrient Mixture F-12; Gibco) supplemented with fetal bovine serum (FBS, 10% v/v), sodium pyruvate (0.5 mM, Gibco), penicillin-streptomycin (100 U/mL, 100 μg/mL) and Geneticin® Selective antibiotic (G418; 0.5 mg/mL). Cells were detached from the flask base using a non-enzymatic cell dissociation solution (Cellstripper, Corning), removed and re-seeded on to poly-D-lysine coated glass coverslips in 35 mm dishes. Cells in dishes were further supplemented with G418 at a final concentration of 1 mg/mL and after 24 hours, expression of Cav3.2 was induced with 1 μg/mL tetracycline. The medium for the HEK-293 cells was composed of D-MEM/F-12 (Dulbecco's Modified Eagle Medium/Nutrient Mixture F-12; Gibco, #11330-032) and 15 mM HEPES buffer, with L-glutamine and pyridoxine hydrochloride. It was supplemented with FBS (Fetal Bovine Serum), P/S (Penicillin/Streptomycin) (Gibco, #15140-122), and sodium pyruvate 100 mM (Gibco, #11360-070). At least 24 hours before the assay, expression of the alpha-2-delta-1 and beta2a subunits of the calcium channel were induced with 1 ug/mL tetracycline.
Whole-cell voltage clamp recordings were performed on rat or mouse DRG neurons within 2 days after acutely dissociation or cultured HEK293 cells expressing T-type channels (encoded by Cav3.1, Cav3.2 or Cav3.3 channels). All experiments were performed at room temperature (around 21° C.). Whole-cell currents were recorded using a MultiClamp 700B amplifier and analyzed offline with pCLAMP10.4 software (Molecular Devices, LLC, Sunnyvale Calif., USA). To record calcium currents in DRG and HEK293 cells, the external solution was composed (in mM) of 115 choline-Cl, 30 TEA-Cl, 2 CaCl2, 10 glucose and 10 HEPES (pH 7.3-7.4 adjusted with TEA-OH; osmolality verified as 295 mOsm/kg). The internal solution was composed (in mM) of 125 CsCl, 10 HEPES (acid), 10 EGTA (ethylene glycol tetraacetic acid), 1 CaCl2, 1 MgCl2, 4 MgATP and 0.3 MgGTP (pH 7.3-7.4 adjusted with CsOH; osmolality verified as 295 mOsm/kg). Since the sodium ions were absent in the external solution, tetrodoctoxin was not needed. Calcium currents were recorded at a holding potential of −100 mV and then depolarized to −30 mV for 100 ms to activate either Cav3.1, Cav3.2, or Cav3.3 expressed in HEK cells. An interpulse interval of 10 seconds allowed the channel recovery from inactivation, and achieved stable current recordings. To record sodium (Na^+) currents in DRG neurons, the external solution used the modified Krebs solution specified above. The internal solution was composed (in mM) of 120 CsF, 10 HEPES, 11 EGTA, 1 CaCl2, 1 MgCl2, 10 TEA-Cl, 4 MgATP and 0.3 MgGTP (pH 7.3-7.4 adjusted with CsOH). […] To record potassium currents in DRG neurons, the external solution used the modified Kreb's solution specified above. The internal solution was composed (in mM) of 65 KCl, 80 KF, 5 KOH, 10 EGTA, 2 MgATP (pH 7.3-7.4 adjusted with KOH). Recording electrodes were fabricated using a P-87 puller (Sutter Instrument Co., Novato, Calif., USA). The tip of resistance was 3-4 MQ in bath and the series resistance was less than 10 MΩ after whole cell configuration. All reagents were purchased from Sigma unless specified otherwise. Test compounds were usually applied via a rapid solution exchange system with 8 fine polyplastic tubings (100 μm, OD) glued in a holder in parallel and located closely to the recorded cells. […]

[1] = Table 1, tested at at least 4 concentrations, read-out: IC50
[2] = HEK293, Table 1 primary screening

T1 sequence (O95180 whole entry): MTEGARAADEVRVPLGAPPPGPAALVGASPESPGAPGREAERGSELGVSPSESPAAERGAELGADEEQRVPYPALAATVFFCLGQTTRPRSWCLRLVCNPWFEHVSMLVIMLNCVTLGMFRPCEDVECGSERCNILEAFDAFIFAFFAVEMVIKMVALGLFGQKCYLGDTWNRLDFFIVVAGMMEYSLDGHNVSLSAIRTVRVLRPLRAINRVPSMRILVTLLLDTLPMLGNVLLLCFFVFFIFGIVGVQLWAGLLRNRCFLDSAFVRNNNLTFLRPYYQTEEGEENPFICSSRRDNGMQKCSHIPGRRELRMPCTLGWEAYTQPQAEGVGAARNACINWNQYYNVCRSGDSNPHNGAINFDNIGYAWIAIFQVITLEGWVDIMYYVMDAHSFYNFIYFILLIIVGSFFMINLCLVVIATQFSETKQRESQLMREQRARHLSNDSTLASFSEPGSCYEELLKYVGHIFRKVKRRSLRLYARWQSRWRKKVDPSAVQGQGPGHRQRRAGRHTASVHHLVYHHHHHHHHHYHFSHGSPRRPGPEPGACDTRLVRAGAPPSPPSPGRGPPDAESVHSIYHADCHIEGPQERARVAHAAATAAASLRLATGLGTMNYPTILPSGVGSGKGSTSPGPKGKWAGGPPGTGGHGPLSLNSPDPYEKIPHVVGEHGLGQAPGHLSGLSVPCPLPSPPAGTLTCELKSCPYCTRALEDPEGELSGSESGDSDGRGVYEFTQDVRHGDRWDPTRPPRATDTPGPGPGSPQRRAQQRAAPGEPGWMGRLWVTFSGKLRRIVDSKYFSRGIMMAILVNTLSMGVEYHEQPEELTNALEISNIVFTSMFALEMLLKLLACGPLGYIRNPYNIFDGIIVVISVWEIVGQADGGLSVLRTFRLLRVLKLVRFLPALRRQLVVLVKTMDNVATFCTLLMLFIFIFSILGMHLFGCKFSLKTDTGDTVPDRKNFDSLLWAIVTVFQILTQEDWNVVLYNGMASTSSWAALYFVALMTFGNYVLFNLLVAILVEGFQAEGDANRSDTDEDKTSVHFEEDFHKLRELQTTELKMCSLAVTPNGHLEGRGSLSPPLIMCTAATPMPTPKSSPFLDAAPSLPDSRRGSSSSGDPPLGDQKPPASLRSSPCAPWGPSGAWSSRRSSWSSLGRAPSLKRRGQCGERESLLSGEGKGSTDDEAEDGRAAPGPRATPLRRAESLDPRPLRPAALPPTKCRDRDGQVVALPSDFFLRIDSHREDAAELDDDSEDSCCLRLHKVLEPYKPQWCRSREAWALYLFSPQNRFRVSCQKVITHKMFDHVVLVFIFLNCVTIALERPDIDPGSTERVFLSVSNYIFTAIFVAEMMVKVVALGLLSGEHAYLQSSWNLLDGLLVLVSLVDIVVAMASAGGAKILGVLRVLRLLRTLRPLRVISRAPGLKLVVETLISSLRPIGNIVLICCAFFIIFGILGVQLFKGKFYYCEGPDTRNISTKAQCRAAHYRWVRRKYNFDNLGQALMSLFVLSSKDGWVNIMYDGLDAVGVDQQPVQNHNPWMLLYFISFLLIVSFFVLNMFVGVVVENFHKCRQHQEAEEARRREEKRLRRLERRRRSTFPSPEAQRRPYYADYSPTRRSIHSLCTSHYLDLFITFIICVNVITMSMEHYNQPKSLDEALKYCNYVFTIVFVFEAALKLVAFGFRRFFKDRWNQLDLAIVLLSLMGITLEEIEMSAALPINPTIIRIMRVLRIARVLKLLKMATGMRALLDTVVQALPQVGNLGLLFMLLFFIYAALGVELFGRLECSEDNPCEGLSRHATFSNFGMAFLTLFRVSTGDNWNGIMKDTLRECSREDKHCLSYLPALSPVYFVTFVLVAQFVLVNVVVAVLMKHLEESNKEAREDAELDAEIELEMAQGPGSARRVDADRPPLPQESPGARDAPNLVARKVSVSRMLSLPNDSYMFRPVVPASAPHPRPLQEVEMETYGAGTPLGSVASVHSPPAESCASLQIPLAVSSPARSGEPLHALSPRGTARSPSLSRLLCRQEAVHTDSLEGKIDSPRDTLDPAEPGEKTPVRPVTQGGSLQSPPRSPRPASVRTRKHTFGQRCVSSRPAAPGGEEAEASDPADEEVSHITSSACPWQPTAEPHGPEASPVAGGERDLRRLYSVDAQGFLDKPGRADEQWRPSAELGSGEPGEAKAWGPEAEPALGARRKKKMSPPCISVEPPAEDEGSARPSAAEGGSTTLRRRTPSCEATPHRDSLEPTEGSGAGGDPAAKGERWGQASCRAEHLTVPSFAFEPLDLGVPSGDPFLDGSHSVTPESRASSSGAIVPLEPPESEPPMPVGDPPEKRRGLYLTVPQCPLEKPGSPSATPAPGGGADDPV

IC50 [1] | inhibition at 1 µM [2] | Structure (SMILES) | further results
70 nM | – | CC(C)(C)CCN1CCC2(CC1)CC2N(CC1CC1)C(=O)c1cc(Cl)cc(Cl)c1 (stereo not shown) [Example 55, 3,5-Dichloro-N-(cyclopropylmethyl)-N-(6-(3,3-dimethylbutyl)-6-azaspiro[2.5]octan-1-yl)benzamide] | –
220 nM | – | CC(C)(C)C(O)CN1CCC2(CC1)CC2NC(=O)c1cc(Cl)cc(Cl)c1 (stereo not shown) [Example 58, 3,5-Dichloro-N-(6-(2-hydroxy-3,3-dimethylbutyl)-6-azaspiro[2.5]octan-1-yl)benzamide] | –
70 nM | – | O=C(NC1CC12CCN(CC(O)c1ccc(C(F)(F)F)cc1)CC2)c1cc(Cl)cc(Cl)c1 (stereo not shown) [Example 59, 3,5-Dichloro-N-(6-(2-hydroxy-2-(4-(trifluoromethyl)phenyl)ethyl)-6-azaspiro[2.5]octan-1-yl)benzamide] | –
280 nM | – | CC(C)(C)CCN1CCC2(CCC2NC(=O)c2cc(Cl)cc(Cl)c2)CC1 (stereo not shown) [Example 69, 3,5-Dichloro-N-(7-(3,3-dimethylbutyl)-7-azaspiro[3.5]nonan-1-yl)benzamide] | –
200 nM | – | CC(C)(C)NC(=O)CN1CCC2(CCC2NC(=O)c2cc(Cl)cc(Cl)c2)CC1 (stereo not shown) [Example 71, N-(7-(2-(tert-Butylamino)-2-oxoethyl)-7-azaspiro[3.5]nonan-1-yl)-3,5-dichlorobenzamide] | –
690 nM | – | CC(C)(C)NC(=O)CN1CCC2(CC1)CC2CNC(=O)c1cc(Cl)cc(Cl)c1 (stereo not shown) [Example 87, N-((6-(2-(tert-Butylamino)-2-oxoethyl)-6-azaspiro[2.5]octan-1-yl)methyl)-3,5-dichlorobenzamide] | –
90 nM | – | CC(C)(C)CCN1CCC2(CC1)CC2CNC(=O)c1cc(Cl)cc(Cl)c1 (stereo not shown) [Example 88, 3,5-Dichloro-N-((6-(3,3-dimethylbutyl)-6-azaspiro[2.5]octan-1-yl)methyl)benzamide] | –
90 nM | – | O=C(NCC1CC12CCN(CCc1ccccc1)CC2)c1cc(Cl)cc(Cl)c1 (stereo not shown) [Example 89, 3,5-Dichloro-N-((6-phenethyl-6-azaspiro[2.5]octan-1-yl)methyl)benzamide] | –
130 nM | – | CC(C)(C)NC(=O)CN1CCC2(CC1)CC2C(=O)Nc1cc(Cl)cc(Cl)c1 (stereo not shown) [Example 90] | –
60 nM | – | CC(C)(C)CCN1CCC2(CC1)CC2C(=O)Nc1cc(Cl)cc(Cl)c1 (stereo not shown) [Example 91, N-(3,5-Dichlorophenyl)-6-(3,3-dimethylbutyl)-6-azaspiro[2.5]octane-1-carboxamide] | –
– | 35% | O=C(Nc1cc(Cl)cc(Cl)c1)C1CC12CCN(CCc1ccccc1)CC2 (stereo not shown) [Example 92, N-(3,5-Dichlorophenyl)-6-phenethyl-6-azaspiro[2.5]octane-1-carboxamide] | –
100 nM | – | CC(C)(C)NC(=O)CN1CCC2(CC1)CC2CNc1cc(Cl)cc(Cl)c1 (stereo not shown) [Example 93] | –
130 nM | – | CC(C)(C)CCN1CCC2(CC1)CC2CNc1cc(Cl)cc(Cl)c1 (stereo not shown) [Example 94] | –
– | 67% | Clc1cc(Cl)cc(NCC2CC23CCN(CCc2ccccc2)CC3)c1 (stereo not shown) [Example 95] | –
– | 33% | O=C(NCC1CCN(CCC2CC2)CC1)c1ccc(Cl)s1 [Example 97, 5-Chloro-N-((1-(2-cyclopropylethyl)piperidin-4-yl)methyl)thiophene-2-carboxamide] | –
– | 75% | CC(C)(C)NC(=O)CN1CCC(CNC(=O)CCc2cccc(Cl)c2)CC1 [Example 99, N-((1-(2-(tert-Butylamino)-2-oxoethyl)piperidin-4-yl)methyl)-3-(3-chlorophenyl)propanamide] | –

IC50 [1] | inhibition at 1 µM [2] | Structure (SMILES) | further results
– | 26% | O=C(CN1CCC(CNC(=O)c2ccccc2)CC1)NC1CCCCC1 [Example 100, N-((1-(2-(Cyclohexylamino)-2-oxoethyl)piperidin-4-yl)methyl)benzamide] | –
– | 44% | O=C(CN1CCC(CNC(=O)c2ccccc2)CC1)Nc1ccccc1 [Example 101, N-((1-(2-Oxo-2-(phenylamino)ethyl)piperidin-4-yl)methyl)benzamide] | –
– | 47% | O=C(CN1CCC(CNC(=O)c2ccc(O)cc2)CC1)Nc1ccccc1 [Example 102, 4-Hydroxy-N-((1-(2-oxo-2-(phenylamino)ethyl)piperidin-4-yl)methyl)benzamide] | –
– | 53% | COc1cccc(C(=O)NCC2(C)CCN(CC(=O)NC(C)(C)C)CC2)c1 [Example 108, N-((1-(2-(tert-butylamino)-2-oxoethyl)-4-methylpiperidin-4-yl)methyl)-3-methoxybenzamide] | –
– | 44% | O=C(CN1CCC(CO)(CNC(=O)c2ccccc2F)CC1)Nc1ccccc1 [Example 110, 2-fluoro-N-((4-(hydroxymethyl)-1-(2-oxo-2-(phenylamino)ethyl)piperidin-4-yl)methyl)benzamide] | –
– | 24% | O=C(Nc1nnc(-c2ccc(Cl)s2)o1)c1ccccc1 [Example 117, N-(5-(5-Chlorothiophen-2-yl)-1,3,4-oxadiazol-2-yl)benzamide] | –
– | – | O=C(CCc1cccc(Cl)c1)Nc1nnc(-c2ccccc2)o1 [Example 119, 3-(3-Chlorophenyl)-N-(5-phenyl-1,3,4-oxadiazol-2-yl)propanamide] | inhibition at 3 µM (HEK293, Table 1 primary screening, 3 μM as indicated in cell, read-out: % inhibition at 3 μM): 5%
– | 9.2% | O=C(CCc1ccc(Cl)c(Cl)c1)Nc1nnc(-c2ccc(Cl)s2)o1 [Example 120, N-(5-(5-Chlorothiophen-2-yl)-1,3,4-oxadiazol-2-yl)-3-(3,4-dichlorophenyl)propanamide] | –
– | 75% | O=C(Cc1cccc(Cl)c1)Nc1nnc(-c2ccc(Cl)s2)o1 [Example 121, 2-(3-Chlorophenyl)-N-(5-(5-chlorothiophen-2-yl)-1,3,4-oxadiazol-2-yl)acetamide] | –
– | 14.9% | Cc1cc(C(=O)Nc2nnc(-c3ccccc3)o2)no1 [Example 122, 5-Methyl-N-(5-phenyl-1,3,4-oxadiazol-2-yl)isoxazole-3-carboxamide] | –
– | 7.1% | O=C(Nc1nnc(-c2ccccc2)o1)c1cnccn1 [Example 124, N-(5-Phenyl-1,3,4-oxadiazol-2-yl)pyrazine-2-carboxamide] | –
– | 5.9% | Cc1cc(C(=O)Nc2nnc(-c3ccccc3F)o2)no1 [Example 126, N-(5-(2-Fluorophenyl)-1,3,4-oxadiazol-2-yl)-5-methylisoxazole-3-carboxamide] | –
– | 8.5% | O=C(Nc1nnc(-c2ccccc2F)o1)c1cnccn1 [Example 127, N-(5-(2-Fluorophenyl)-1,3,4-oxadiazol-2-yl)pyrazine-2-carboxamide] | –
90 nM | – | CC(C)(C)CCN1CCC2(CC1)CC2NC(=O)c1cc(C(F)(F)F)ccc1Cl (stereo not shown) [Example 142, 2-Chloro-N-(6-(3,3-dimethylbutyl)-6-azaspiro[2.5]octan-1-yl)-5-(trifluoromethyl)benzamide] | –
290 nM | – | CC(C)(C)NC(=O)CN1CCC2(CC1)CC2NC(=O)C12CC3CC(CC(C3)C1)C2 (stereo not shown) [Example 143, N-(6-(2-(tert-Butylamino)-2-oxoethyl)-6-azaspiro[2.5]octan-1-yl)adamantane-1-carboxamide] | –

Structure (SMILES) | IC50 [1] | inhibition at 1 µM [2] | further results
O=C(N[C@@H]1CCC12CCN(CCc1ccccc1)CC2)c1ccccc1 [Example 111] | – | 30% | IC50: 1500 nM
O=C(N[C@H]1CCC12CCN(CCc1ccccc1)CC2)c1ccccc1 [Example 112] | – | 24% | –
